From patent US12350194B1, “Topical ocular delivery of fluids with controlled mass dosing and wireless communication” (Bausch + Lomb Ireland Limited, priority 2018, dated 2025)

Assays:
[1] = test system: patients with primary open angle glaucoma; assay: Trial 2: intraocular pressure by Goldmann applanation tonometry; type: in vivo, human; conditions: AcuStream vs standard eye dropper; Wilcoxon Ranked Sum test, p=0.3447
Procedure: Trial 2 compared the efficacy (dose volume equivalence) of 0.005% w/v latanoprost for intraocular pressure reduction when delivered via AcuStream™ (pre-trial calibration volume=9.2 μl) versus the standard eye dropper for topical drug delivery (approximate volume=30 μl).
Patients included in Trial 2 have previously been diagnosed with primary open angle glaucoma on the basis of intraocular pressure and visual field testing, fundus examination or optical coherence tomography (OCT) data and are currently on prostaglandin analog medical therapy. Patients with corneal abnormalities that would interfere with accurate IOP measurements with applanation tonometry, use of an oral or topical ophthalmic steroids within the past 14 days from screening date, any active ocular surface or anterior segment disease, or progressive field loss during the past year were excluded from the study. Thirteen men and five women participated in the trial. […]
After performing slit lamp examinations on each patient to verify eligibility and obtaining informed consent, intraocular pressure (IOP) was measured by a sole experienced examiner who was blind to the randomized conditions. […]
Latanoprost solution was administered by a sole ophthalmologist to both eyes of each patient, based on the pre-determined randomized condition.

eye of subjects = assay: Presbyopia: pupil diameter after self-administered pilocarpine micro-dose; type: in vivo, human
Procedure: A 10 μl micro-dose of a 1% pilocarpine solution was self-administered using an electromagnetic actuated fluid delivery device, e.g., as described above, by three subjects to their own eye. The age range of the subjects was 52 years to 68 years, and all subjects were male. The pilocarpine micro-dose was self-administered by the subjects.
Baseline, pre-dose values of pupil diameter and near visual acuity in both eyes prior to dosing was measured for all subjects, and then following the baseline measurements, the subjects were dosed in only one eye (the eye with the poorer visual acuity) with the micro-dose pilocarpine solution. Approximately 45 to 60 minutes after dosing, pupil diameter and near visual acuity were again tested. Near visual acuity was measured using a Snellen card at a distance of 40 cm. A tabulation of results is given below in Table A.

Structure (SMILES)	difference in IOP reduction between groups [1]	miotic effect in non-dosed eye (eye of subjects)
CC(C)OC(=O)CCC/C=C\C[C@@H]1[C@@H](CC[C@@H](O)CCc2ccccc2)[C@H](O)C[C@@H]1O [latanoprost]	no statistically significant differences	
CC[C@@H]1C(=O)OC[C@@H]1Cc1cncn1C [pilocarpine]		no miotic effect
